Source: patent US8142782B2, “EGFR inhibitors promote axon regeneration” (Children's Medical Center Corporation, priority 2005, dated 2012)

What was measured:
[1] = tested on: cerebellar granule cells (CGNs) on immobilized myelin substrate; assay: Screen of about 400 small molecules in a neurite outgrowth assay of CGNs on immobilized myelin; type: cell-based; conditions: 5×10^4 CGNs per well on immobilized myelin, grown overnight; 10-fold dilutions centered on IC50; scored by two blind observers
Description: We screened approximately 400 well-characterized small molecules in a neurite outgrowth assay of cerebellar granule cells (CGNs) on immobilized myelin substrate. Myelin was immobilized on 96-well plates using published methods (8). Individual compounds from a signaling molecule targeted drug library (TOCRIS) were diluted by 10-fold dilutions centered on their IC50 values, in concentrations typically varying from low nanomolar to micromolar, and transferred to culture wells with 5×10^4 CGNs per well. Cells were grown overnight, fixed in paraformaldehyde, and stained with tubulin antibodies. Outgrowth was independently scored by two blind observers. Positively scored compounds were picked for further verifications. Each compound was evaluated at a 10^4 dilution range centered on its IC50 value to ensure effective concentrations for each drug tested. Several internal controls, including cAMP analogues, phosphodiesterase inhibitors, and a Rho-associated protein kinase inhibitor were identified in the screen, confirming previous findings and validating our approach.

EGFR = EGFR phosphorylation in serum-starved CGNs (immunoblot of neuronal lysates); type: cell-based; conditions: for effect on EGFR phosphorylation subsequent to Nogo-66 treatment: CGNs, Nogo-66-elicited trans-activation; for effect on direct EGFR activation by EGF: EGF stimulation; for induction of EGFR phosphorylation: serum-starved CGNs, Nogo-66 and OMgp at 5 nM
Description: To examine whether myelin inhibitors directly influence the activity of EGFR in myelin-responsive neurons, we treated serum-starved CGNs with recombinant soluble myelin inhibitors and assessed the EGFR receptor activity.
Previously, we developed a truncated form of NgR that has the ability to bind to ligands but not its signaling co-receptors (8-10, 12). When over-expressed, the truncated receptor can compete with endogenous NgR for coreceptor binding and thus block inhibitor-induced signaling pathways (8-10, 12). […] It is known that in addition to activation by its cognate ligands, EGFR phosphorylation can also result from “trans-activation” by other signaling pathways (22, 23). For example, angiotensin II acts through the angiotensin AT1 receptor, to promote growth of cardiomyocytes via trans-activation of the EGFR and activation of MAP kinase (23). […] We examined whether any of these mechanism(s) are involved in the NgR-dependent EGFR trans-activation by inhibiting specific signaling pathways pharmacologically. […]

CGNs = assay: Neurite outgrowth assay of P7-9 CGNs on control and myelin inhibitor substrates; type: cell-based; conditions: AG1288 1 μM, AG1478 10 nM, PD168393 10 nM; 20 hr; about 500 neurons per condition
Description: (§1) To confirm the involvement of EGFR kinase in myelin inhibition, we tested two well-characterized EGFR inhibitors with distinctive mechanisms of action, AG1478 and PD168393, and a non-receptor tyrosine kinase inhibitor, AG1288, in the outgrowth assay. P7-9 CGNs were plated on control and immobilized myclin substrate and grown in the presence of AG1288 (1 μM), AG1478 (10 nM) and PD168393 (10 nM) for 20 hr (8, 10). Cells were fixed in paraformaldehyde and stained with anti-tubulin antibody (Tuj1, Covance) to visualize and quantitate neurite length. […] Approximately 500 neurons were counted for each condition from at least 3 independent experiments. All AG1478 and PD168393 treatments on inhibitors were significant. In contrast, none of the treatments affected either the neurite outgrowth on a control poly-D-lysine (PDL) substrate or neuronal survival. Similarly, EGFR kinase inhibitors were able to block myelin neurite outgrowth inhibition in retinal explant cultures grown within a collagen matrix laden with myelin. P5-6 mouse retinas were dissected and cut into small explants on a tissue chopper. The resultant explants were cultured within a collagen matrix with and without myelin (10 μg/ml) in the presence or absence of PD168393 (10 nM) for 72 hrs. Explants were fixed and stained with anti-tubulin antibodies.

PC12 cells = conditions: cultured PC12 cells; cited from earlier work
[2] = tested on: PC12 cell lines with reduced EGFR signaling; conditions: cited from earlier work
[3] = tested on: dorsal root ganglion (DRG) neurons; assay: Neurite outgrowth assay of DRG neurons on myelin inhibitor substrates; type: cell-based
[4] = tested on: P5-6 mouse retinal explants; assay: Retinal explant outgrowth in collagen matrix laden with myelin; type: cell-based; conditions: myelin 10 μg/ml in collagen matrix; PD168393 10 nM; 72 hrs; Student's t test P<0.0001
Description: as §1

[5] = tested on: lesioned optic nerve fibers; type: in vivo
Description: The finding that inhibiting neuronal EGFR activity could efficiently block the inhibitory activity of both myelin inhibitors and CSPGs prompted us to examine whether EGFR inhibitors introduced at a CNS lesion site could promote axon regeneration in a model of optic nerve crushing (28). All animal experiments were done in accordance with protocols approved by the institutional animal care and use committee at Schepens Eye Research Institute. Adult mouse optic nerves were exposed behind the eyeball and crushed. Immediately after injury in adult mice, Gelfoam soaked in a solution containing the EGFR inhibitor PD168393 or 0.1% DMSO (control) was placed against the crush site of the nerve and replaced every three days for the first six days of the study. Animals were sacrificed two weeks post injury followed by transcardial perfusion with 4% paraformaldehyde. Optic nerves were cryosectioned at 10 μm and stained with an anti-GAP43 antibody (Chemicon) to detect regenerating axons (28). Little regeneration was detected in DMSO-treated control mice. […] To test the possibility that the observed axon regrowth of retinal ganglion neurons (RGCs) after PD168393 treatment was a consequence of improved cell survival, we stained retinal sections with the anti-tubulin Tuj1 antibody, which stains RGCs in the retina, and counted surviving RGCs. […]

Retinal explants = assay: Retinal explant neurite outgrowth in collagen gels with CSPGs; type: cell-based; conditions: CSPGs 200 ng/ml in collagen gels; PD168393 100 nM; three days
Description: In addition to myelin inhibitors, chondroitin sulfate proteoglycans (CSPGs) in the glial scar represent a major hurdle for regenerating axons. […] Retinal explants were grown in collagen gels with and without CPSGs (200 ng/ml, Chemicon) and PD168393 (100 nM) for three days, fixed and stained with anti-tubulin antibodies. […] In contrast, neither growth cone collapse nor repulsive responses induced by Sema3A were affected by EGFR inhibitors.

[6] = tested on: neurons of the crushed right internal parietal (RIP) nerve; conditions: pond snail Lymnaea stagnalis; cited from earlier work
CNS neurons = CNS neurons overexpressing SOCS2; cited from earlier work

C[C@@H](NC(=O)/C(C#N)=C/c1ccc(O)c(O)c1)c1ccccc1 [Tyrphostin B44(−)]
ability to counter the effects of myelin inhibition on neurite outgrowth [1]: showed the greatest ability to counter the effects of myelin inhibition

TAPI
effect on EGFR phosphorylation subsequent to Nogo-66 treatment (EGFR): had no effect

N#C/C(=C\c1ccc(O)c(O)c1)C(N)=S [Tyrphostin A47]
ability to counter the effects of myelin inhibition on neurite outgrowth [1]: showed the greatest ability to counter the effects of myelin inhibition

Cn1c2ccccc2c2c3c(c4c5ccccc5n(CCC#N)c4c21)CNC3=O [Go6976]
effect on EGFR phosphorylation subsequent to Nogo-66 treatment (EGFR): had no effect

COc1cc2ncnc(Nc3cccc(Cl)c3)c2cc1OC [AG1478]
promotion of neurite outgrowth from CGNs on whole myelin and individual myelin inhibitors (Nogo-66, MAG) (CGNs): effectively promoted neurite outgrowth
effect on versican V1-induced neuronal differentiation (PC12 cells): significantly blocks differentiation
cytotoxicity [2]: cytotoxic
promotion of neurite outgrowth from DRG neurons on whole myelin and individual myelin inhibitors (Nogo-66, MAG) [3]: effectively promoted neurite outgrowth

C=CC(=O)Nc1ccc2ncnc(Nc3cccc(Br)c3)c2c1 [PD168393]
outgrowth of retinal explants in myelin cultures compared to myelin alone [4]: significantly promoted outgrowth of explants
promotion of neurite outgrowth from CGNs on whole myelin and individual myelin inhibitors (Nogo-66, MAG) (CGNs): effectively promoted neurite outgrowth
increase in the number of regenerating axons compared to control mice ([5]; adult mice, measured 0.25 mm beyond the injury site, two weeks post injury, GAP43 staining, DMSO control): 9 fold
effect on RGC survival ([5]; mouse, in vivo): No detectable effect
neurite length of retinal explants compared to CSPGs alone (Retinal explants): significantly increased neurite length
promotion of neurite outgrowth from DRG neurons on whole myelin and individual myelin inhibitors (Nogo-66, MAG) [3]: effectively promoted neurite outgrowth

pertussis toxin
effect on EGFR phosphorylation subsequent to Nogo-66 treatment (EGFR): had no effect

N#C/C(=C\c1ccc(O)c(O)c1)C(N)=O [Tyrphostin A46]
ability to counter the effects of myelin inhibition on neurite outgrowth [1]: showed the greatest ability to counter the effects of myelin inhibition

COc1cc2ncnc(Nc3cccc(Br)c3)c2cc1OC [PD153035]
effect on EGF-promoted axonal regeneration [6]: counteracts the effect of EGF on axonal regeneration

O=C(O)CN(CCOCCOCCN(CC(=O)O)CC(=O)O)CC(=O)O [EGTA]
effect on EGFR phosphorylation subsequent to Nogo-66 treatment (EGFR): significantly decreased EGFR phosphorylation
effect on direct EGFR activation by EGF (EGFR): neither EGTA nor BAPTA-AM had any effect

CC(=O)OCOC(=O)CN(CC(=O)OCOC(C)=O)c1ccccc1OCCOc1ccccc1N(CC(=O)OCOC(C)=O)CC(=O)OCOC(C)=O [BAPTA-AM]
effect on EGFR phosphorylation subsequent to Nogo-66 treatment (EGFR): significantly decreased EGFR phosphorylation
effect on direct EGFR activation by EGF (EGFR): neither EGTA nor BAPTA-AM had any effect

CNC(=O)[C@H](Cc1c[nH]c2ccccc12)NC(=O)[C@@H](CC(=O)NO)CC(C)C [GM6001]
effect on EGFR phosphorylation subsequent to Nogo-66 treatment (EGFR): had no effect

Nc1ncnc2c1cnn2-c1ccccc1 [PP3]
effect on neurite outgrowth promoted by SOCS2 overexpression (CNS neurons): outgrowth is blocked

CC(C)(C)n1nc(-c2ccc(Cl)cc2)c2c(N)ncnc21 [PP2]
effect on EGFR phosphorylation subsequent to Nogo-66 treatment (EGFR): had no effect

N#C/C(=C\c1ccc(O)c(O)c1)C(=O)NCc1ccccc1 [AG490]
effect on neurite outgrowth promoted by SOCS2 overexpression (CNS neurons): outgrowth is blocked

B1: Semaphorin3A: chemorepellant (protein, UniProt Q14563 21-771, looked up)
Semaphorin-3A: NYQNGKNNVPRLKLSYKEMLESNNVITFNGLANSSSYHTFLLDEERSRLYVGAKDHIFSFDLVNIKDFQKIVWPVSYTRRDECKWAGKDILKECANFIKVLKAYNQTHLYACGTGAFHPICTYIEIGHHPEDNIFKLENSHFENGRGKSPYDPKLLTASLLIDGELYSGTAADFMGRDFAIFRTLGHHHPIRTEQHDSRWLNDPKFISAHLISESDNPEDDKVYFFFRENAIDGEHSGKATHARIGQICKNDFGGHRSLVNKWTTFLKARLICSVPGPNGIDTHFDELQDVFLMNFKDPKNPVVYGVFTTSSNIFKGSAVCMYSMSDVRRVFLGPYAHRDGPNYQWVPYQGRVPYPRPGTCPSKTFGGFDSTKDLPDDVITFARSHPAMYNPVFPMNNRPIVIKTDVNYQFTQIVVDRVDAEDGQYDVMFIGTDVGTVLKVVSIPKETWYDLEEVLLEEMTVFREPTAISAMELSTKQQQLYIGSTAGVAQLPLHRCDIYGKACAECCLARDPYCAWDGSACSRYFPTAKRRTRRQDIRNGDPLTHCSDLHHDNHHGHSPEERIIYGVENSSTFLECSPKSQRALVYWQFQRRNEERKEEIRVDDHIIRTDQGLLLRSLQQKDSGNYLCHAVEHGFIQTLLKVTLEVIDTEHLEELLHKDDDGDGSKTKEMSNSMTPSQKVWYRDFMQLINHPNLNTMDEFCEQVWKRDRKQRRQRPGHTPGNSNKWKHLQENKKGRNRRTHEFERAPRSV
induction of EGFR phosphorylation (EGFR): neither a control alkaline phosphatase (AP) protein nor the chemorepellant Semaphorin3A (Sema3A) induced detectable levels

B2: OMgp: recombinant soluble myelin inhibitor, oligodendrocyte myelin glycoprotein (protein, UniProt P23515 25-417, looked up)
Oligodendrocyte-myelin …: ICPLQCICTERHRHVDCSGRNLSTLPSGLQENIIHLNLSYNHFTDLHNQLTQYTNLRTLDISNNRLESLPAHLPRSLWNMSAANNNIKLLDKSDTAYQWNLKYLDVSKNMLEKVVLIKNTLRSLEVLNLSSNKLWTVPTNMPSKLHIVDLSNNSLTQILPGTLINLTNLTHLYLHNNKFTFIPDQSFDQLFQLQEITLYNNRWSCDHKQNITYLLKWMMETKAHVIGTPCSTQISSLKEHNMYPTPSGFTSSLFTVSGMQTVDTINSLSVVTQPKVTKIPKQYRTKETTFGATLSKDTTFTSTDKAFVPYPEDTSTETINSHEAAAATLTIHLQDGMVTNTSLTSSTKSSPTPMTLSITSGMPNNFSEMPQQSTTLNLWREETTTNVKTPLPS
induction of EGFR phosphorylation (EGFR): triggered EGFR phosphorylation as early as 1 min post-stimulation
